Experimental data reported in PubChem BioAssay AID328 (DTP/NCI, 2004).
Where “and” joins values, the source holds several entries; their conditions need not be identical. Identical values can stand only once. Toxic doses and inconclusive results are not listed. How the source made its calls: active means survival T/C of 150% or more; inactive means T/C below 125% in these data.

Test system: BDF1 mice, P388 leukemia ip, median survival T/C
Test: NCI In Vivo Anticancer Drug Screen. Data for tumor model P388 Leukemia (intraperitoneal) in B6D2F1 (BDF1) mice
Conditions: endpoint: median survival time, higher = longer survival
Procedure, shortened: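 Read-out is survival of treated animals expressed relative to the vehicle group, as a T/C ratio.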

[1] = dose: 50.0 mg/kg/injection, schedule: Q01DX009 (ip), vehicle: water
[2] = dose: 100.0 mg/kg/injection, schedule: Q01DX009 (ip), vehicle: water
[3] = dose: 100.0 mg/kg/injection, schedule: Q04DX003 (ip), vehicle: Klucel (hydroxypropylcellulose) (HPC)
[4] = dose: 100.0 mg/kg/injection, schedule: Q04DX003 (ip), vehicle: water
[5] = dose: 200.0 mg/kg/injection, schedule: Q01DX009 (ip), vehicle: water
[6] = dose: 200.0 mg/kg/injection, schedule: Q04DX003 (ip), vehicle: Klucel (hydroxypropylcellulose) (HPC)
[7] = dose: 200.0 mg/kg/injection, schedule: Q04DX003 (ip), vehicle: water
[8] = dose: 400.0 mg/kg/injection, schedule: Q01DX009 (ip), vehicle: water
[9] = dose: 400.0 mg/kg/injection, schedule: Q04DX003 (ip), vehicle: Klucel (hydroxypropylcellulose) (HPC)
[10] = dose: 400.0 mg/kg/injection, schedule: Q04DX003 (ip), vehicle: water

Measured: T/C

CC(C)(Br)C(=O)c1ccc(-c2ccccc2)cc1
inactive: dose: 12.5 mg/kg/injection, schedule: Q01DX009 (ip), vehicle: water 109 % of control | dose: 25.0 mg/kg/injection, schedule: Q01DX009 (ip), vehicle: water 96 % of control | dose: 25.0 mg/kg/injection, schedule: Q04DX003 (ip), vehicle: water 107 % of control | [1] 117 % of control | dose: 50.0 mg/kg/injection, schedule: Q04DX003 (ip), vehicle: water 107 % of control | [2] 102 % of control | [3] 90 % of control | [4] 107 % of control | [5] 109 % of control | [6] 100 % of control | [7] 107 % of control | [8] 117 % of control | [9] 100 % of control | [10] 110 % of control

Cn1nnnc1[N-]Cc1ccccc1.[Au+].c1ccc([PH+](c2ccccc2)c2ccccc2)cc1
inactive: dose: 12.5 mg/kg/injection, schedule: Q01DX001 (ip), vehicle: saline with Tween-80 111 % of control | dose: 25.0 mg/kg/injection, schedule: Q01DX001 (ip), vehicle: saline with Tween-80 111 % of control | dose: 50.0 mg/kg/injection, schedule: Q01DX001 (ip), vehicle: saline with Tween-80 123 % of control

COc1ccc(C(C)=O)cc1OCc1ccccc1
inactive: [1] 114 % of control | [2] 109 % of control | [4] 102 % of control | [5] 119 % of control | [7] 102 % of control | [8] 111 % of control | [10] 111 % of control

CC(C)=CCC1=C(O)c2ccccc2C(=O)C1=O
inactive: dose: 25.0 mg/kg/injection, schedule: Q#A X018 (oral), vehicle: other 100 % of control | dose: 50.0 mg/kg/injection, schedule: Q01DX010 (ip), vehicle: other 104 % of control | dose: 50.0 mg/kg/injection, schedule: Q01DX010 (ip), vehicle: water 118 % of control | dose: 50.0 mg/kg/injection, schedule: Q#A X018 (oral), vehicle: other 100 % of control | dose: 50.0 mg/kg/injection, schedule: Q#A X020 (ip), vehicle: other 100 % of control | dose: 75.0 mg/kg/injection, schedule: Q01DX010 (ip), vehicle: water 100 % of control and 109 % of control | dose: 100.0 mg/kg/injection, schedule: Q01DX010 (ip), vehicle: other 118 % of control | dose: 100.0 mg/kg/injection, schedule: Q#A X018 (oral), vehicle: other 100 % of control | dose: 100.0 mg/kg/injection, schedule: Q#A X020 (ip), vehicle: other 90 % of control | dose: 125.0 mg/kg/injection, schedule: Q01DX010 (ip), vehicle: water 95 % of control | dose: 150.0 mg/kg/injection, schedule: Q01DX010 (ip), vehicle: water 90 % of control and 104 % of control | dose: 150.0 mg/kg/injection, schedule: Q#A X018 (ip), vehicle: other 100 % of control | dose: 150.0 mg/kg/injection, schedule: Q#A X020 (ip), vehicle: other 120 % of control

Cn1cnc([N+](=O)[O-])c1[Se]c1ncnc2c1ccn2C1OC(CO)C(O)C1O (stereo not drawn)
inactive: dose: 6.25 mg/kg/injection, schedule: Q01DX009 (ip), vehicle: saline 107 % of control | dose: 12.5 mg/kg/injection, schedule: Q01DX009 (ip), vehicle: saline 88 % of control | dose: 25.0 mg/kg/injection, schedule: Q01DX009 (ip), vehicle: saline 102 % of control | dose: 100.0 mg/kg/injection, schedule: Q04DX003 (ip), vehicle: saline 100 % of control | dose: 200.0 mg/kg/injection, schedule: Q04DX003 (ip), vehicle: saline 104 % of control

Cc1cc(NS(=O)(=O)c2ccccc2)ccc1NS(=O)(=O)c1ccccc1
inactive: dose: 75.0 mg/kg/injection, schedule: Q01DX009 (ip), vehicle: Klucel (hydroxypropylcellulose) (HPC) 87 % of control | [3] 104 % of control | dose: 150.0 mg/kg/injection, schedule: Q01DX009 (ip), vehicle: Klucel (hydroxypropylcellulose) (HPC) 100 % of control | [6] 100 % of control | dose: 300.0 mg/kg/injection, schedule: Q01DX009 (ip), vehicle: Klucel (hydroxypropylcellulose) (HPC) 87 % of control | [9] 95 % of control

COc1ccc(OC)c(/C=C/c2ccc3ccccc3n2)c1
inactive: dose: 50.0 mg/kg/injection, schedule: Q04DX003 (ip), vehicle: saline with Tween-80 105 % of control | dose: 100.0 mg/kg/injection, schedule: Q04DX003 (ip), vehicle: saline with Tween-80 100 % of control and 105 % of control | dose: 200.0 mg/kg/injection, schedule: Q04DX003 (ip), vehicle: saline with Tween-80 110 % of control | dose: 400.0 mg/kg/injection, schedule: Q04DX003 (ip), vehicle: saline with Tween-80 100 % of control

N#CCSc1ncnc2nc[nH]c12
inactive: dose: 30.0 mg/kg/injection, schedule: Q01DX010 (ip), vehicle: saline 95 % of control and 100 % of control | dose: 60.0 mg/kg/injection, schedule: Q01DX010 (ip), vehicle: saline 100 % of control | dose: 120.0 mg/kg/injection, schedule: Q01DX010 (ip), vehicle: saline 100 % of control

N#Cc1cnccn1
inactive: dose: 100.0 mg/kg/injection, schedule: Q01DX009 (ip), vehicle: saline 100 % of control | dose: 200.0 mg/kg/injection, schedule: Q01DX009 (ip), vehicle: saline 100 % of control | dose: 400.0 mg/kg/injection, schedule: Q01DX009 (ip), vehicle: saline 87 % of control
